Reference: the kinase profiling compilation of Christmann-Franck et al. (2016)

Assays:
Assay in all cases: KINOMEscan competition binding
Conditions in all cases: compound 10.0 µM
ABL2 (human) = ABL2 (human) (UniProt P42684)
AXL (human) = AXL (human) (UniProt P30530)
CAMK1G (human) = CAMK1G (human) (UniProt Q96NX5)
CAMK2D (human) = CAMK2D (human) (UniProt Q13557)
CAMK4 (human) = CAMK4 (human) (UniProt Q16566)
CAMKK1 (human) = CAMKK1 (human) (UniProt Q8N5S9)
CDK16 (human) = CDK16 (human) (UniProt Q00536)
CDK2 (human) = CDK2 (human) (UniProt P24941)
CRK2 (P.falciparum) = CRK2 (P.falciparum) (UniProt P61075)
DAPK3 (human) = DAPK3 (human) (UniProt O43293)
EPHA2 (human) = EPHA2 (human) (UniProt P29317)
EPHA4 (human) = EPHA4 (human) (UniProt P54764)
ERN1 (human) = ERN1 (human) (UniProt O75460)
FGFR4 (human) = FGFR4 (human) (UniProt P22455)
HIPK2 (human) = HIPK2 (human) (UniProt Q9H2X6)
IRAK1 (human) = IRAK1 (human) (UniProt P51617)
MAP3K1 (human) = MAP3K1 (human) (UniProt Q13233)
MAP3K15 (human) = MAP3K15 (human) (UniProt Q6ZN16)
MAP3K9 (human) = MAP3K9 (human) (UniProt P80192)
MAPK8 (human) = MAPK8 (human) (UniProt P45983)
MARK3 (human) = MARK3 (human) (UniProt P27448)
MYLK4 (human) = MYLK4 (human) (UniProt Q86YV6)
MYO3B (human) = MYO3B (human) (UniProt Q8WXR4)
NLK (human) = NLK (human) (UniProt Q9UBE8)
PAK1 (human) = PAK1 (human) (UniProt Q13153)
PIK3C2G (human) = PIK3C2G (human) (UniProt O75747)
PIP4K2C (human) = PIP4K2C (human) (UniProt Q8TBX8)
PRKAA2 (human) = PRKAA2 (human) (UniProt P54646)
PRKACA (human) = PRKACA (human) (UniProt P17612)
PRKACB (human) = PRKACB (human) (UniProt P22694)
PTK2B (human) = PTK2B (human) (UniProt Q14289)
RIOK2 (human) = RIOK2 (human) (UniProt Q9BVS4)
RIOK3 (human) = RIOK3 (human) (UniProt O14730)
RPS6KA6 KD2 (human) = RPS6KA6 KD2 (human) (UniProt Q9UK32)
SBK1 (human) = SBK1 (human) (UniProt Q52WX2)
SIK1 (human) = SIK1 (human) (UniProt P57059)
SRMS (human) = SRMS (human) (UniProt Q9H3Y6)
TAOK1 (human) = TAOK1 (human) (UniProt Q7L7X3)
TLK2 (human) = TLK2 (human) (UniProt Q86UE8)
TNIK (human) = TNIK (human) (UniProt Q9UKE5)

TAOK1 (human), sequence (Q7L7X3 whole entry, looked up): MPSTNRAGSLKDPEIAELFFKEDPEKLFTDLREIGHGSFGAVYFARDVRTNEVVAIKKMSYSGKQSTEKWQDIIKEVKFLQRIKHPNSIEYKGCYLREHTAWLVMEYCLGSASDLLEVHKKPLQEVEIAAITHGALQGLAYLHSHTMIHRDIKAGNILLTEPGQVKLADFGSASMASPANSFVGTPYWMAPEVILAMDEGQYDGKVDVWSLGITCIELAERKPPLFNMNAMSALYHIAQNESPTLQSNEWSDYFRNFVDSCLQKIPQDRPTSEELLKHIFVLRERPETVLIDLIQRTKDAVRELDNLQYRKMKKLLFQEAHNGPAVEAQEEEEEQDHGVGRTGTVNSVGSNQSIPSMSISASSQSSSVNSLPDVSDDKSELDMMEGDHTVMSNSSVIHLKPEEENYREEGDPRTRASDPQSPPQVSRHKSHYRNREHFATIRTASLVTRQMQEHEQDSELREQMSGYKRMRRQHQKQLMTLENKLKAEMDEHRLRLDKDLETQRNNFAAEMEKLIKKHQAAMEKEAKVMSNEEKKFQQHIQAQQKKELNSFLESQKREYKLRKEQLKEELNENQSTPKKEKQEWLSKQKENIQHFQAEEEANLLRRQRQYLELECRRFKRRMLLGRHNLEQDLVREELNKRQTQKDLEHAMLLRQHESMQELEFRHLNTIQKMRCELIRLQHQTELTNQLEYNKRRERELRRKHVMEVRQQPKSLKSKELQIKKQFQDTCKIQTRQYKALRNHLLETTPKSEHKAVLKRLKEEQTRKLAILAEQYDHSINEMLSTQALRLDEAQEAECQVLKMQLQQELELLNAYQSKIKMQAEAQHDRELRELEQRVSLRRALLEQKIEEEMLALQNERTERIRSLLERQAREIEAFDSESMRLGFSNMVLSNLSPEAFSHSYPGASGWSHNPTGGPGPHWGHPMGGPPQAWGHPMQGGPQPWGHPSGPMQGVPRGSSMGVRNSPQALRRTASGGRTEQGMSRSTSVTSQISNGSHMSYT
MAP3K9 (human), sequence (P80192 whole entry, looked up): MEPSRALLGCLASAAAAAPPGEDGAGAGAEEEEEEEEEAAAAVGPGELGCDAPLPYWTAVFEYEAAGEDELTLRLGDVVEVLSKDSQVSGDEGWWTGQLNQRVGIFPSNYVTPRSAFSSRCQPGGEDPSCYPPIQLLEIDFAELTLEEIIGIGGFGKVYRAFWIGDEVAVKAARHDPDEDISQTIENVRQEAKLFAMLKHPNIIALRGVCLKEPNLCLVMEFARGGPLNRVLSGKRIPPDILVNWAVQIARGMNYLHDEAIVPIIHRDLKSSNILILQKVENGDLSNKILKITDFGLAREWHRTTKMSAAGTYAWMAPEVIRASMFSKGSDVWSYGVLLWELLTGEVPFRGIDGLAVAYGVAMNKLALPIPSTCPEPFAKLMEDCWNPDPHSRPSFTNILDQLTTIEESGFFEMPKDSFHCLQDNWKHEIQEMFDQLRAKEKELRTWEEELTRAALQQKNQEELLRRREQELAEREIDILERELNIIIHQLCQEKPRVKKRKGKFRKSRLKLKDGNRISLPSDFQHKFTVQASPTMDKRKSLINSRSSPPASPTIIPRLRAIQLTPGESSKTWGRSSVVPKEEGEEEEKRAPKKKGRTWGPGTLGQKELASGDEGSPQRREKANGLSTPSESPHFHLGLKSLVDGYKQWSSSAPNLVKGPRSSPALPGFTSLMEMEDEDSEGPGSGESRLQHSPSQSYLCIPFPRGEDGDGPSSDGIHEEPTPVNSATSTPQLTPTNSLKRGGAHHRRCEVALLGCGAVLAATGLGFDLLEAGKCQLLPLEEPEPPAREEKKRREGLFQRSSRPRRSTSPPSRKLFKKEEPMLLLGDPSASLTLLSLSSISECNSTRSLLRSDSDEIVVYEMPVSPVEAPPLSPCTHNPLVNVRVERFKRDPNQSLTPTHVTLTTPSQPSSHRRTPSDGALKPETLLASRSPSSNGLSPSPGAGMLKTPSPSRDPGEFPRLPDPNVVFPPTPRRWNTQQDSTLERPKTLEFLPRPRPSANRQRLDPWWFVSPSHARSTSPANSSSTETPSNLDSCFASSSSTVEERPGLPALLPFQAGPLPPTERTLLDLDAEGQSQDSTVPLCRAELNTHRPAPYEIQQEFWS
MAPK8 (human), sequence (P45983 whole entry, looked up): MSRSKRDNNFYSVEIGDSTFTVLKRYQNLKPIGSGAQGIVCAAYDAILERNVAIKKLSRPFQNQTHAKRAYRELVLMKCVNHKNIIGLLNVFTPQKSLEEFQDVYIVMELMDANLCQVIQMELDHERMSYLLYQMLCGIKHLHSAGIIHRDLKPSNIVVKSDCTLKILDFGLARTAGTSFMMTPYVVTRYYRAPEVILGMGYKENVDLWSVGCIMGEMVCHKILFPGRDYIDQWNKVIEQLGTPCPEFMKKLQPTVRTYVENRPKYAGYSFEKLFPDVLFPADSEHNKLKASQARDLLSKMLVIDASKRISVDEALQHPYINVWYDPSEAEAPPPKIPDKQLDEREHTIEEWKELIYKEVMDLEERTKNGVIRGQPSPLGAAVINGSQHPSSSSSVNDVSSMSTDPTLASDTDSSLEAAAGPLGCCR
PRKAA2 (human), sequence (P54646 whole entry, looked up): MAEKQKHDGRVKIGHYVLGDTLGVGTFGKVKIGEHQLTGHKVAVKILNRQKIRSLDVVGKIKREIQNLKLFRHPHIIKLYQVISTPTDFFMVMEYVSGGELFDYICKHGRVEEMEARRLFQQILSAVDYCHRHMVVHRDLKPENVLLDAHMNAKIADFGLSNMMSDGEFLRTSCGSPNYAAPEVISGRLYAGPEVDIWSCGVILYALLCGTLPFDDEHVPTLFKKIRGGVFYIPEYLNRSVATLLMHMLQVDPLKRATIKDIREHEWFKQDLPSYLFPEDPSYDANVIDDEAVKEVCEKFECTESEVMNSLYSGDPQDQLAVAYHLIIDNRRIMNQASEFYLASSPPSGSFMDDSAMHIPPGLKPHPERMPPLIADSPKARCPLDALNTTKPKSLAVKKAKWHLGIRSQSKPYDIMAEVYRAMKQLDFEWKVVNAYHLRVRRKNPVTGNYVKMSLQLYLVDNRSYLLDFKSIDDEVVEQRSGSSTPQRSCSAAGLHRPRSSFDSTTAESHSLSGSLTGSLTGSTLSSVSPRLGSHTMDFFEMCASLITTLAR
ABL2 (human), sequence (P42684 whole entry, looked up): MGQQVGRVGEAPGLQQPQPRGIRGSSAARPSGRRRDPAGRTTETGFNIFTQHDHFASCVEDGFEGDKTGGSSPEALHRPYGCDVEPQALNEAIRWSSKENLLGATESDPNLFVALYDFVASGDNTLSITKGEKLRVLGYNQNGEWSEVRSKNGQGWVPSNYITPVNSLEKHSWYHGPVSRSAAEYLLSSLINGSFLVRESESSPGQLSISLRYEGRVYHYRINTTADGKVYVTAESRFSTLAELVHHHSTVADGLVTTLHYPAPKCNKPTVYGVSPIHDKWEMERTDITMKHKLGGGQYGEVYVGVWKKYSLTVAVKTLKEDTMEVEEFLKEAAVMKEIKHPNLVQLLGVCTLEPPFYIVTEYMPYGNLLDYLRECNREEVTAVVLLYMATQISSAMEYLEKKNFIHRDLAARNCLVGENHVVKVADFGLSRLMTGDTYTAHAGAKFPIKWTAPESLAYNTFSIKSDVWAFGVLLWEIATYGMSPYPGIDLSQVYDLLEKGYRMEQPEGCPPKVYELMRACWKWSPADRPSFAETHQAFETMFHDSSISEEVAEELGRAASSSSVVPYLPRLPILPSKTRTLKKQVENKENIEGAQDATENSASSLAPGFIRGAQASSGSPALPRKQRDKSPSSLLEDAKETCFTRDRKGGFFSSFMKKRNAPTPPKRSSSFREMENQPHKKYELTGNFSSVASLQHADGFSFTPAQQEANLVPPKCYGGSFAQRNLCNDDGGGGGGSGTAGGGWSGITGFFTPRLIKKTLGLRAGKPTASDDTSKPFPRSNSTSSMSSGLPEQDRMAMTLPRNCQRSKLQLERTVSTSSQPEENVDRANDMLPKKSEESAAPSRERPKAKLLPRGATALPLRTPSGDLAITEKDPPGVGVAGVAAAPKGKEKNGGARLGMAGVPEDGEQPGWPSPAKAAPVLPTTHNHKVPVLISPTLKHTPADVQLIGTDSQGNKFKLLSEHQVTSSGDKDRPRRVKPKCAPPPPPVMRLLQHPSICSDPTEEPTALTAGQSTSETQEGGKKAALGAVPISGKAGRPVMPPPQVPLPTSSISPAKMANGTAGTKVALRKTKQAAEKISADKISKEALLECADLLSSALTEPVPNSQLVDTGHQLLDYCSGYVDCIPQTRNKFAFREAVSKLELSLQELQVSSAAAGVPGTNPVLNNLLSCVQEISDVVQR
PAK1 (human), sequence (Q13153 whole entry, looked up): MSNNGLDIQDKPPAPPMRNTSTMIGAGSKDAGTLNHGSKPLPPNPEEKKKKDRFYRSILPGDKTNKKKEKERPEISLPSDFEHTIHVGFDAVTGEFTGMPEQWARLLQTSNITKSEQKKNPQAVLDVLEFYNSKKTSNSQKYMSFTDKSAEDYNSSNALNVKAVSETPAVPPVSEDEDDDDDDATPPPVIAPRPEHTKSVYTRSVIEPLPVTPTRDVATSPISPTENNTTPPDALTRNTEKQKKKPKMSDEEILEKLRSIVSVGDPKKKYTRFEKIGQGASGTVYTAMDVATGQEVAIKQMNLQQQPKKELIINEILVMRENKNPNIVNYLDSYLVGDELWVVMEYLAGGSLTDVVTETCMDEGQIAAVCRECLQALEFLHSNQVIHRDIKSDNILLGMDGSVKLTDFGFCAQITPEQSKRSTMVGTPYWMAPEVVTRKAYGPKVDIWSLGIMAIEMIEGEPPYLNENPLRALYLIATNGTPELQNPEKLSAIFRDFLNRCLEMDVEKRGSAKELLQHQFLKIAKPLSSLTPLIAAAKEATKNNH

SMILES	kinase still bound, per cent of control (ABL2 (human)) [%]	kinase still bound, per cent of control (AXL (human)) [%]	kinase still bound, per cent of control (CAMK1G (human)) [%]	kinase still bound, per cent of control (CAMK2D (human)) [%]	kinase still bound, per cent of control (CAMK4 (human)) [%]	kinase still bound, per cent of control (CAMKK1 (human)) [%]	kinase still bound, per cent of control (CDK16 (human)) [%]	kinase still bound, per cent of control (CDK2 (human)) [%]	kinase still bound, per cent of control (CRK2 (P.falciparum)) [%]	kinase still bound, per cent of control (DAPK3 (human)) [%]	kinase still bound, per cent of control (EPHA2 (human)) [%]	kinase still bound, per cent of control (EPHA4 (human)) [%]	kinase still bound, per cent of control (ERN1 (human)) [%]	kinase still bound, per cent of control (FGFR4 (human)) [%]	kinase still bound, per cent of control (HIPK2 (human)) [%]	kinase still bound, per cent of control (IRAK1 (human)) [%]	kinase still bound, per cent of control (MAP3K1 (human)) [%]	kinase still bound, per cent of control (MAP3K15 (human)) [%]	kinase still bound, per cent of control (MAP3K9 (human)) [%]	kinase still bound, per cent of control (MAPK8 (human)) [%]	also measured
CCN1CCN(C(=O)Cc2ccc(Nc3ncc(F)c(Nc4ccc(C(=O)Nc5ccccc5Cl)cc4)n3)cc2)CC1	20	2.1	39	71	100	25	40	80	100	5.2	51	83	91	71	5	22	97	100	17	1.7	kinase still bound, per cent of control (MARK3 (human)): 80%; kinase still bound, per cent of control (MYLK4 (human)): 11%; kinase still bound, per cent of control (MYO3B (human)): 100%; kinase still bound, per cent of control (NLK (human)): 98%; kinase still bound, per cent of control (PAK1 (human)): 53%; kinase still bound, per cent of control (PIK3C2G (human)): 39%; kinase still bound, per cent of control (PIP4K2C (human)): 38%; kinase still bound, per cent of control (PRKAA2 (human)): 39%; kinase still bound, per cent of control (PRKACA (human)): 42%; kinase still bound, per cent of control (PRKACB (human)): 76%; kinase still bound, per cent of control (PTK2B (human)): 33%; kinase still bound, per cent of control (RIOK2 (human)): 17%; kinase still bound, per cent of control (RIOK3 (human)): 0.2%; kinase still bound, per cent of control (RPS6KA6 KD2 (human)): 62%; kinase still bound, per cent of control (SBK1 (human)): 75%; kinase still bound, per cent of control (SIK1 (human)): 28%; kinase still bound, per cent of control (SRMS (human)): 58%; kinase still bound, per cent of control (TAOK1 (human)): 62%; kinase still bound, per cent of control (TLK2 (human)): 33%; kinase still bound, per cent of control (TNIK (human)): 45%
COc1ccc(N(C(=O)Oc2c(C)cccc2C)c2ccnc(Nc3ccc(N4CCN(C)CC4)cc3)n2)c(OC)c1	0.1	17	73	100	100	88	98	65	100	88	0	0	62	7.4	100	19	32	83	0.6	64	kinase still bound, per cent of control (MARK3 (human)): 4.8%; kinase still bound, per cent of control (MYLK4 (human)): 100%; kinase still bound, per cent of control (MYO3B (human)): 18%; kinase still bound, per cent of control (NLK (human)): 3.9%; kinase still bound, per cent of control (PAK1 (human)): 6.8%; kinase still bound, per cent of control (PIK3C2G (human)): 98%; kinase still bound, per cent of control (PIP4K2C (human)): 100%; kinase still bound, per cent of control (PRKAA2 (human)): 7.9%; kinase still bound, per cent of control (PRKACA (human)): 1.6%; kinase still bound, per cent of control (PRKACB (human)): 2.5%; kinase still bound, per cent of control (PTK2B (human)): 9%; kinase still bound, per cent of control (RIOK2 (human)): 83%; kinase still bound, per cent of control (RIOK3 (human)): 5.1%; kinase still bound, per cent of control (RPS6KA6 KD2 (human)): 67%; kinase still bound, per cent of control (SBK1 (human)): 100%; kinase still bound, per cent of control (SIK1 (human)): 0.3%; kinase still bound, per cent of control (SRMS (human)): 8.6%; kinase still bound, per cent of control (TAOK1 (human)): 11%; kinase still bound, per cent of control (TLK2 (human)): 76%; kinase still bound, per cent of control (TNIK (human)): 37%
O=C1NC(=O)/C(=C/c2ccc3nccc(-c4ccncc4)c3c2)S1	77	7.6	32	10	100	12	71	76	93	0.6	95	96	66	59	0.15	0.25	60	100	76	18	kinase still bound, per cent of control (MARK3 (human)): 100%; kinase still bound, per cent of control (MYLK4 (human)): 2.2%; kinase still bound, per cent of control (MYO3B (human)): 97%; kinase still bound, per cent of control (NLK (human)): 84%; kinase still bound, per cent of control (PAK1 (human)): 86%; kinase still bound, per cent of control (PIK3C2G (human)): 3.8%; kinase still bound, per cent of control (PIP4K2C (human)): 3.2%; kinase still bound, per cent of control (PRKAA2 (human)): 93%; kinase still bound, per cent of control (PRKACA (human)): 35%; kinase still bound, per cent of control (PRKACB (human)): 31%; kinase still bound, per cent of control (PTK2B (human)): 86%; kinase still bound, per cent of control (RIOK2 (human)): 37%; kinase still bound, per cent of control (RIOK3 (human)): 1.4%; kinase still bound, per cent of control (RPS6KA6 KD2 (human)): 5.2%; kinase still bound, per cent of control (SBK1 (human)): 73%; kinase still bound, per cent of control (SIK1 (human)): 96%; kinase still bound, per cent of control (SRMS (human)): 67%; kinase still bound, per cent of control (TAOK1 (human)): 3%; kinase still bound, per cent of control (TLK2 (human)): 87%; kinase still bound, per cent of control (TNIK (human)): 36%
